Patent US11325921B2, “Optically active crosslinked cyclic secondary amine derivative” (Sumitomo Dainippon Pharma Co., Ltd., priority 2018, dated 2022)
Read-outs that look alike come from different tables or passages of the source.

What was measured:
[1] = test system: HOXA9 mRNA in MV4; 11 cells; test: Test 3: inhibition of mRNA transcription, HOXA9; type: cell-based; conditions: 20 to 24 hours, fitted with GAPDH; for mrna remaining at 1 µM: Homo sapiens, read-out: mRNA at 1 μM (% control) HOXA9
Description: (§1) MV4; 11 cells were obtained from American Type Culture Collection (ATCC). The cells were cultured at 37° C. in the presence of 5% CO2 in RPMI 1640 medium containing 10% fetal bovine serum and 1% penicillin/streptomycin. To the MV4; 11 cells was added each test compound to adjust the final concentration to 1 μmol/L, and the cells were cultured at 37° C. in the presence of 5% CO2 for 20 to 24 hours. After the incubation, the total RNA was extracted from the cells with RNeasy™ Mini Kit (QIAGEN, 74106), and cDNA was synthesized with Superscript™ VILO™ cDNA Synthesis Kit (Invitrogen, #11754250). By using TaqMan™ Gene Expression Master Mix (Applied Biosystems, 4369016) and TaqMan™ probe (Applied Biosystems), the expression level of mRNA was quantified from the obtained cDNA with 7900HT (Applied biosystems). The mRNA expression level of each obtained gene was fitted with the expression level of mRNA of GAPDH.

MOLM-13 cells = test: Test 2: inhibition of cell proliferation, MOLM-13; type: cell-based; conditions: cultured 7 days, PrestoBlue
Description: (§2) RS4; 11 cells were obtained from American Type Culture Collection (ATCC). The cells were cultured at 37° C. in the presence of 5% CO2 in RPMI 1640 medium containing 10% fetal bovine serum and 1% penicillin/streptomycin. MOLM-13 cells were separately obtained from DSMZ. The cells were cultured at 37° C. in the presence of 5% CO2 in RPMI 1640 medium containing 20% fetal bovine serum and 1% penicillin/streptomycin.
(§3) The cells were plated to a 96-well plate in 2000 cells/well, each test compound was added thereto to adjust the final concentration of DMSO to 0.1% of DMSO, and the cells were cultured for 7 days. After the cultivation, the cell viability was calculated with PrestoBlue™ Cell Viability Reagent (Invitrogen, A13261). The IC50 value was calculated from a survival curve, that corresponds to the concentration of the test compound at which the cell proliferation inhibition rate is 50%.

[2] = test system: MEIS1 mRNA in MV4; 11 cells; test: Test 3: inhibition of mRNA transcription, MEIS1; type: cell-based; conditions: for mrna remaining at 1 µM: Homo sapiens, read-out: mRNA at 1 μM (% control) MEIS1; for mRNA transcription inhibition activity (in words): MEIS1 and HOXA9, MV4, 1 μM, summary of the table
Description: as §1

[3] = Test 4: pharmacokinetic study; type: in vivo; conditions: male SD rat, oral, 10 mg/kg; for AUC(0-t): plasma, 24 hours; for compound-exposure in plasma (in words): summary of the table
Description: The test compound suspended in 0.5% methylcellulose was orally administered to 7-week-old male SD rat in a dose of 10 mg/kg. The blood sample was taken from jugular vein without anesthesia over time for 24 hours. The blood sample was centrifuged to obtain plasma. The plasma was pre-treated by methanol extraction method, and then analyzed with an LC-MS/MS to determine the concentration of the test compound. Based on the data from 0 hour after the administration until the time (t) when there was the final detection in the plasma, AUC was calculated by trapezoidal method.

RS4; 11 cells = test: Test 2: inhibition of cell proliferation, RS4; 11; type: cell-based; conditions: for IC50: 11 cells, cultured 7 days, PrestoBlue; for cell proliferation inhibition activity (in words, good) / cell proliferation inhibitory activity (in words, potent): 11 and MOLM-13 cells, summary of the table; for cell proliferation inhibitory activity (in words, potent): 'especially'
Description: as §2, §3

[4] = molecular target: Menin-MLL binding (His-Menin1-615 / MLL1-172-FLAG) (Homo sapiens (Human), UniProt O00255); test: Test 1: inhibition of the Menin-MLL binding (HTRF); conditions: for Menin-MLL binding inhibition activity (in words): summary of the table
Chain of Menin-MLL binding (His-Menin1-615 / MLL1-172-FLAG) (O00255 other isoform, or with tags, fused parts or gaps): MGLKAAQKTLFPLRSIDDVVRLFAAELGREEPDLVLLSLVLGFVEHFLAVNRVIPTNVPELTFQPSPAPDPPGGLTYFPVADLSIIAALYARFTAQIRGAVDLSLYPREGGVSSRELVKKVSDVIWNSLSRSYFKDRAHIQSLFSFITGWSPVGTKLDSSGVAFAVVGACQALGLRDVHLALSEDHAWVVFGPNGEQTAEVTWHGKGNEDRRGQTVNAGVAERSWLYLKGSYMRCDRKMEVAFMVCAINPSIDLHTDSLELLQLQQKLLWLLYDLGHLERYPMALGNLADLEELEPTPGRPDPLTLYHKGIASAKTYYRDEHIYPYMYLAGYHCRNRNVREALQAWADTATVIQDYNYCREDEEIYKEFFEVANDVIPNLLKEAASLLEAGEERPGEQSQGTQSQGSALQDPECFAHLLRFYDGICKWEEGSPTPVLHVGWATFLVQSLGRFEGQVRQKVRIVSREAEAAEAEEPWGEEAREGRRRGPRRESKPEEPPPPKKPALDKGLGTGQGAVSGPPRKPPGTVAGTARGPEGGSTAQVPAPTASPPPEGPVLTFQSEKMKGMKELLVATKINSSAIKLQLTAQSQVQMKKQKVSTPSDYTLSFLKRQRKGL
Description: Menin1-615 wherein 6× His tag and HA tag are inserted in the N-terminus, and myc tag is inserted in the C-terminus (hereinafter, referred to as His-Menin1-615), was diluted with an assay buffer (25 mmol/L HEPES, 150 mmol/L NaCl, 1 mmol/L dithiothreitol, 0.5% (w/v) Tween 80, 0.3% (w/v) BSA, 0.3% (w/v) skim milk) to adjust the final concentration Lo 30 nmol/L. The test compounds were also diluted with the assay buffer to adjust each concentration of the test compounds to 0.005 to 5 μmol/L. The prepared His-Menin1-615 and test compounds were added to a light-shielding 384-well low-volume plate (Corning, #4514) in 2 μL/well and 6 μL/well, respectively, and the plate was covered with a lid for light-shielding (Corning, r-3935), and incubated at room temperature for 3 hours. After the incubation, MLL1-172 wherein FLAG tag is inserted in the C-terminus (MLL1-172-FLAG), was separately diluted with the assay buffer to adjust the final concentration to 50 nmol/L. The prepared MLL1-172-FLAG was added to the above plate in 2 μL/well, and the plate was covered with a lid for light-shielding and incubated at room temperature for an hour.
Then, anti-6HIS-d2 antibody (cisbio, 61HISDLA) and anti-FLAGM2-K antibody (cisbio, 61FG2KLA) were diluted with an antibody dilution buffer (50 mmol/L Tris, 150 mmol/L NaCl, 800 mmol/L KF, pH 7.4) to adjust the final concentration to 1.4 μg/mL to prepare an antibody mixture. The prepared antibody mixture was added to the above plate in 10 μL/well, and the plate was covered with a lid and incubated at 4° C. for 17 to 24 hours. After the incubation, the signal was detected with RUBYstar (BMG LABTECH). The binding inhibition rate (%) at each concentration of the test compounds was calculated from the following formula, and the IC50 value was obtained, that corresponds to the concentration of the test compound at which the binding inhibition rate is 50%.

[5] = MV4, 20 to 24 hours, fitted with GAPDH

Row | IC50 (MOLM-13 cells; Homo sapiens, 168 h) [nM] | AUC(0-t) ([3]; read-out: AUC0-t) [ng·h/mL] | compound-exposure in plasma (in words) [3] | IC50 (RS4; 11 cells; Homo sapiens, 168 h) [nM] | IC50 [4] [nM] | Molecule | mrna remaining at 1 µM [1] [%] | mrna remaining at 1 µM [2, 5] [%] | mRNA at 1 μM (% control) HOXA9 [1] [% control] | IC50 (MOLM-13 cells) [nM] | mRNA transcription inhibition activity (in words) [2] | mRNA at 1 μM (% control) MEIS1 [2, 5] [% control] | AUC(0-t) [3] [ng·h/mL] | cell proliferation inhibition activity (in words, good) (RS4; 11 cells) | cell proliferation inhibitory activity (in words, potent) (RS4; 11 cells) | IC50 (RS4; 11 cells) [nM] | Menin-MLL binding inhibition activity (in words) [4]
1 | 260 | 1960 | good compound-exposure in plasma | 200 | 17.8 | O=C([C@H]1N[C@@H]2CC[C@H]1C2)N1CC2(C1)CN(c1c(C(F)(F)F)cnc3sc(CC(F)(F)F)cc13)C2 [Example 2, [(1R,3S,4S)-2-azabicyclo[2.2.1]heptan-3-yl]{6-[2-(2,2,2-trifluoroethyl)-5-(trifluoromethyl)thieno[2,3-b]pyridin-4-yl]-2,6-diazaspiro[3.3]heptan-2-yl}methanone] | 34.3 | 32 |  |  |  |  |  |  |  |  | 
2 | 290 | 668 |  | 280 | 11 | N#Cc1cnc2sc(CC(F)(F)F)cc2c1N1CC2(CN(C(=O)[C@H]3N[C@H]4CC[C@@H]3C(F)(F)C4)C2)C1 [Example 23, 4-{6-[(1S,3S,4S)-5,5-difluoro-2-azabicyclo[2.2.2]octane-3-carbonyl]-2,6-diazaspiro[3.3]heptan-2-yl}-2-(2,2,2-trifluoroethyl)thieno[2,3-b]pyridine-5-carbonitrile] | 49.3 | 45.4 |  |  |  |  |  |  |  |  | 
3 | 80 | 2410 | good compound-exposure in plasma | 90 | 13.3 | O=C([C@H]1N[C@H]2CC[C@@H]1[C@@H](F)C2)N1CC2(C1)CN(c1c(C(F)(F)F)cnc3sc(CC(F)(F)F)cc13)C2 [Example 1, {(1S,3S,4S,5S)-5-Fluoro-2-azabicyclo[2.2.2]octan-3-yl}{6-[2-(2,2,2-trifluoroethyl)-5-(trifluoromethyl)thieno[2,3-b]pyridin-4-yl]-2,6-diazaspiro[3.3]heptan-2-yl}methanone] | 43.3 | 18 |  |  | showed the mRNA transcription inhibition activity |  |  | good | potent |  | potent
4 | 280 | 3750 | good compound-exposure in plasma | 170 | 31.7 | O=C([C@H]1N[C@H]2C[C@@H]1[C@@H](F)C2)N1CC2(C1)CN(c1c(C(F)(F)F)cnc3sc(CC(F)(F)F)cc13)C2 [Example 9, [(1S,3S,4S,5S)-5-fluoro-2-azabicyclo[2.2.1]heptan-3-yl]{6-[2-(2,2,2-trifluoroethyl)-5-(trifluoromethyl)thieno[2,3-b]pyridin-4-yl]-2,6-diazaspiro[3.3]heptan-2-yl}methanone] | 49.4 | 34.2 |  |  |  |  |  |  |  |  | 
5 | 210 | 1210 | good compound-exposure in plasma | 200 | 31.8 | O=C([C@H]1NC2CCC1CC2)N1CC2(C1)CN(c1c(C(F)(F)F)cnc3sc(CC(F)(F)F)cc13)C2 [Example 3, [(3S)-2-azabicyclo[2.2.2]octan-3-yl]{6-[2-(2,2,2-trifluoroethyl)-5-(trifluoromethyl)thieno[2,3-b]pyridin-4-yl]-2,6-diazaspiro[3.3]heptan-2-yl}methanone] | 32 | 18.7 |  |  |  |  |  |  |  |  | 

Row | Molecule | IC50 (MOLM-13 cells; Homo sapiens, 168 h) [nM] | AUC(0-t) ([3]; read-out: AUC0-t) [ng·h/mL] | compound-exposure in plasma (in words) [3] | IC50 (RS4; 11 cells; Homo sapiens, 168 h) [nM] | IC50 [4] [nM] | mrna remaining at 1 µM [1] [%] | mrna remaining at 1 µM [2, 5] [%] | mRNA at 1 μM (% control) HOXA9 [1] [% control] | IC50 (MOLM-13 cells) [nM] | mRNA transcription inhibition activity (in words) [2] | mRNA at 1 μM (% control) MEIS1 [2, 5] [% control] | AUC(0-t) [3] [ng·h/mL] | cell proliferation inhibition activity (in words, good) (RS4; 11 cells) | cell proliferation inhibitory activity (in words, potent) (RS4; 11 cells) | IC50 (RS4; 11 cells) [nM] | Menin-MLL binding inhibition activity (in words) [4]
6 | 4-{6-[(1S,3S,4S,5S)-5-fluoro-2-azabicyclo[2.2.2]octane-3-carbonyl]-2,6-diazaspiro[3.3]heptan-2-y}-2-(2,2,2-trifluoroethyl)thieno[2,3-b]pyridine-5-carbonitrile [Example 22] |  |  |  |  | 6.2 |  |  | 37.0 | 90 | showed the mRNA transcription inhibition activity | 18.1 | 244 | good | potent | 100 | potent
